Measured values reported in publication PMC10365998, “An ATP-sensitive phosphoketolase regulates carbon fixation in cyanobacteria” (Nature Metabolism, 2023).
Blank lines part the entries; values can stand above or below the molecule they belong to.

Assays:
SeXPK [1] = target: T1, SeXPK (Synechococcus elongatus, UniProt Q31LF9); experiment: cryo-EM structure; format: binding; conditions: 2 mM AMPPNP; allosteric site at dimer interface, two per dimer, no Mg2+ bound; TPP/Mg2+ present
T1 construct: gene Synpcc7942_2080; N-terminal 6His tag, pDC vector, E. coli; dodecamer of six dimers; purified with TPP/Mg2+
T1 sequence (Q31LF9 1-796): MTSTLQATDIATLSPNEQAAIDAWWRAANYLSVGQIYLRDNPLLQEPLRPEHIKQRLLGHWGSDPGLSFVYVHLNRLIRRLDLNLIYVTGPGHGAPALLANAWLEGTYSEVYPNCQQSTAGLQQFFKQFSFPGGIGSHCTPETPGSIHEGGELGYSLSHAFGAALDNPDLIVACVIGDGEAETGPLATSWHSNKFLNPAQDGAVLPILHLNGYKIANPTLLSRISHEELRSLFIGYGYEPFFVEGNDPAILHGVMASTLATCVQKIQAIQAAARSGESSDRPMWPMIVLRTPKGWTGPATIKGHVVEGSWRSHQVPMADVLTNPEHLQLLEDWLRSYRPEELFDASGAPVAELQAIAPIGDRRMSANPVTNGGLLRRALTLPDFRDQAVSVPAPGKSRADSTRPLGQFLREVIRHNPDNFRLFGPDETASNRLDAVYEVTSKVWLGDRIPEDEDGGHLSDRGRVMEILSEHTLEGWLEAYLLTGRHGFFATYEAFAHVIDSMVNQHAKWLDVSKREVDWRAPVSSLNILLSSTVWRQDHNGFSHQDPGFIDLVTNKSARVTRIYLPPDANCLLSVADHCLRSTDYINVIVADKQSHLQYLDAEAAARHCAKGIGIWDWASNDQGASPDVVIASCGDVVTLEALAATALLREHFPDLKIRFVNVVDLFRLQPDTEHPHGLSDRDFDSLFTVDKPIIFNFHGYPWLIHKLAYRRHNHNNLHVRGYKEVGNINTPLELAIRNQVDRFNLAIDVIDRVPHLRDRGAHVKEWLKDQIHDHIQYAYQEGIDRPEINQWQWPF

[2] = target: T2, Methylomonas sp. XPK (MeXPK) (Methylomonas sp. DH-1, UniProt A0A172UD65); experiment: acetyl phosphate formation, hydroxamate colorimetric assay; format: biochemical; conditions: F6P varied, 30 mM phosphate, pH 6.4, 1 mM TPP, 1 mM MgCl2; allosteric
T2 construct: same plasmid as SeXPK (N-terminal 6His tag), expressed in E. coli and purified
T2 sequence (A0A172UD65 1-788): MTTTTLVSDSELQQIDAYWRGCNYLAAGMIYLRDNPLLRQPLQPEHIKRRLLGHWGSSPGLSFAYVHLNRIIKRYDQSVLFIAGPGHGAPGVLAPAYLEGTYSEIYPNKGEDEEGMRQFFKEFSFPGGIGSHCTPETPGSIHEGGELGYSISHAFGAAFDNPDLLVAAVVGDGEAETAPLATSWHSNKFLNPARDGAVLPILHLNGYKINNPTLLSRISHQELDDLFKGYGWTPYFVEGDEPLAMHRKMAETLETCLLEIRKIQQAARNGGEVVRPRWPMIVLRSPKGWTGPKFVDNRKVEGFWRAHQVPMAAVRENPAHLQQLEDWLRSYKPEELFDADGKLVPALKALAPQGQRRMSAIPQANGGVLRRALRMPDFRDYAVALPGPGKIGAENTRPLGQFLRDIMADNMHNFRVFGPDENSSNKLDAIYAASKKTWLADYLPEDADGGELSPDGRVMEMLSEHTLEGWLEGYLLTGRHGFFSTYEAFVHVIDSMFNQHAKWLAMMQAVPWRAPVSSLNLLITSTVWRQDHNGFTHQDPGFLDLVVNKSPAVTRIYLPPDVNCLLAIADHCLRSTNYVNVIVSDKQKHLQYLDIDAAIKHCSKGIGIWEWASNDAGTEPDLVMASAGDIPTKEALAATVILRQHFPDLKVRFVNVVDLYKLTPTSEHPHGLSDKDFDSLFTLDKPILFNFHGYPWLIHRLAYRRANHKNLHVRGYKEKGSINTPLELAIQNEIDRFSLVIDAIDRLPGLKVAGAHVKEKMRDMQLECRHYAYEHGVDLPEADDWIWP
Text: acetyl phosphate formation, hydroxamate colorimetric assay on Methylomonas sp.

SeXPK [3] = target: T1, SeXPK; experiment: as above; format: biochemical; conditions: F6P varied, 30 mM phosphate, pH 6.4, 1 mM TPP, 1 mM MgCl2; allosteric
SeXPK [4] = target: T3, SeXPK (Synechococcus elongatus, UniProt Q31LF9, H706R); experiment: as above; format: biochemical; conditions: 30 mM phosphate, pH 6.4, 1 mM TPP, 1 mM MgCl2; no ATP
T3 construct: gene Synpcc7942_2080; N-terminal 6His tag, pDC vector, E. coli; dodecamer of six dimers; purified with TPP/Mg2+
T3 sequence (Q31LF9 whole entry H706R): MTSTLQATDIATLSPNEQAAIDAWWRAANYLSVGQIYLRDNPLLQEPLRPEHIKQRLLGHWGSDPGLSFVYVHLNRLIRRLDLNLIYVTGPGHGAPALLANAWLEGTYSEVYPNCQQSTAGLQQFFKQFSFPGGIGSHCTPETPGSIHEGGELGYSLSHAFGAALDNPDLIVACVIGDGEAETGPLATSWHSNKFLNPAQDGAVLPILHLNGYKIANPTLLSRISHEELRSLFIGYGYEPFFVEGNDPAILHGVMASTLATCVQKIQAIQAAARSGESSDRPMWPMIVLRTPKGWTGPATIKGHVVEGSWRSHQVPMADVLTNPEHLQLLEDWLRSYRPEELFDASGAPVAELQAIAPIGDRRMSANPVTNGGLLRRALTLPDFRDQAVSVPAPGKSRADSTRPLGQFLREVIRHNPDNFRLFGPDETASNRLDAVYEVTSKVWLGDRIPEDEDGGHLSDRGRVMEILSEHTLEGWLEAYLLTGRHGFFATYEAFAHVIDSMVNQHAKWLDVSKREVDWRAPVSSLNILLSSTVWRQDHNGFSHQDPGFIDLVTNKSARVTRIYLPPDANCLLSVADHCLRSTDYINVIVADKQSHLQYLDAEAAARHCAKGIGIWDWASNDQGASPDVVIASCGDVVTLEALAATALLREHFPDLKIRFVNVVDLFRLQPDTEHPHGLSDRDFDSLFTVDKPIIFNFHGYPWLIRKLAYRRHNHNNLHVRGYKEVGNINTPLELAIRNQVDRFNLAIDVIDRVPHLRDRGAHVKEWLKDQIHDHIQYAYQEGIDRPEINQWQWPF

SeXPK [5] = target: T4, SeXPK (Synechococcus elongatus, UniProt Q31LF9, Y710A); experiment: as above; format: biochemical; conditions: 30 mM phosphate, pH 6.4, 1 mM TPP, 1 mM MgCl2; no ATP
T4 construct: gene Synpcc7942_2080; N-terminal 6His tag, pDC vector, E. coli; dodecamer of six dimers; purified with TPP/Mg2+
T4 sequence (Q31LF9 whole entry Y710A): as the sequence (Q31LF9 whole entry H706R) above, with R706H, Y710A counted along it

SeXPK [6] = target: T5, SeXPK (Synechococcus elongatus, UniProt Q31LF9, H706A); experiment: as above; format: biochemical; conditions: 30 mM phosphate, pH 6.4, 1 mM TPP, 1 mM MgCl2; no ATP; most activity lost
T5 construct: gene Synpcc7942_2080; N-terminal 6His tag, pDC vector, E. coli; dodecamer of six dimers; purified with TPP/Mg2+
T5 sequence (Q31LF9 whole entry H706A): as the sequence (Q31LF9 whole entry H706R) above, with R706A counted along it

[7] = target: T2, Methylomonas sp. XPK (MeXPK); experiment: as above; format: biochemical; conditions: 30 mM phosphate, pH 6.4, 1 mM TPP, 1 mM MgCl2; no ATP
Text: acetyl phosphate formation, hydroxamate colorimetric assay on Methylomonas sp. XPK (MeXPK) | Methylomonas sp.

[8] = target: Bifidobacterium longum phosphoketolase (B. longum XPK) (B. longum); experiment: cryo-EM structure; purified B. longum XPK with TPP/Mg2+, free form; D4 symmetry, focused refinement of one dimer
[9] = target: the molecule itself; experiment: cryo-EM structure; purified SeXPK ~0.4 mg/ml (2.2 µM of dimer) in 20 mM HEPES-NaOH pH 7.2, 0.1 M NaCl, 0.2 mM TPP, 1 mM MgCl2; free and with 2 mM AMPPNP; D6 symmetry, focused refinement of one dimer

Molecule: Nc1ncnc2c1ncn2[C@@H]1O[C@H](COP(=O)(O)OP(=O)(O)NP(=O)(O)O)[C@@H](O)[C@H]1O [AMPPNP, phosphoaminophosphonic acid adenylate ester]
cryo-EM structure (SeXPK [1]): the two subunits jointly bind two AMPPNP

Molecule: Nc1ncnc2c1ncn2[C@@H]1O[C@H](COP(=O)(O)OP(=O)(O)OP(=O)(O)O)[C@@H](O)[C@H]1O [ATP, adenosine-5′-triphosphate]
inhibition [2]: its allosteric inhibition by ATP was validated based on steady-state kinetics
inhibition at 0.5, 1 or 2 mM (SeXPK [3]): SeXPK is inhibited in vitro by ATP through an allosteric mode

acetyl phosphate formation, hydroxamate colorimetric assay (SeXPK [5]): Y710A mutant of SeXPK lost most activity
acetyl phosphate formation, hydroxamate colorimetric assay (SeXPK [6]): H706A mutant of SeXPK lost most activity
Molecule: O=P(O)(O)OC[C@H]1OC(O)(CO)[C@@H](O)[C@@H]1O (stereo partly drawn) [F6P]
ATP sensitivity of activity (SeXPK [4]): H706R mutant of SeXPK shows only minor effect by ATP
Km [7]: Methylomonas sp. XPK (MeXPK) is also inhibited by ATP

stoichiometry N [8]: 8
Molecule: Bifidobacterium longum phosphoketolase (B. longum XPK) (enzyme)

B1: Synechococcus elongatus PCC7942 phosphoketolase (SeXPK) (enzyme)
chain: T1 sequence (Q31LF9 1-796)
notes: phosphoketolase (XPK) of Synechococcus elongatus PCC7942, locus Synpcc7942_2080; Carries the coenzyme TPP/Mg2+; studied free and with 2 mM AMPPNP; Dodecamer of six dimers by cryo-EM; also called S. elongatus PCC7942 XPK; Synpcc7942_2080; source: E. coli DH5αDE3.1, purified (His-Tag resin, Q Sepharose, Superdex 200); copies: 12
stoichiometry N [9]: 12
